According to patent US10265276B2, “Pharmaceutical composition for preventing or treating arthritis or inflammatory disease containing 2-methoxy-4-(3-(4-methoxyphenyl)propyl-1-en-1-yl)phenol as active ingredient” (CHUNGBUK NATIONAL UNIVERSITY INDUSTRY-ACADEMIC COOPERATION …, priority 2015, dated 2019):

Columns and labels:
RAW 264.7 cells [1] = assay: Nitrite assay (NO generation) in LPS-induced RAW 264.7 cells; format: cell-based, mouse; details: LPS (1 µg/mL) and MMPP (0 to 4 µg/mL)
Experimental: 6. Nitrite assay: RAW 264.7 cells were added to a 96-well plate at a density of 1×10^4 cells/well, and LPS […] and TNF-α (10 ng/mL) were added or not added for 24 hours in the presence or absence of various concentrations of MMPP. Accumulation of nitrites in a supernatant was analyzed using a nitric oxide assay kit commercially available from iNtRON Biotechnology (Seongnam, Korea).
(§1) In Experimental Example 4, a luciferase activity assay was carried out to determine whether MMPP inhibited generation of LPS-induced infective factors in RAW 264.7 cells. RAW 264.7 cells were transiently infected with an iNOS-luciferase construct, treated with LPS (1 μg/mL) alone or a combination of MMPP and LPS, and then activated for 12 hours.

[2] = system: CAIA-induced C57BL/6 mice; assay: Collagen antibody-induced arthritis (CAIA) model; format: in vivo, mouse
Experimental: 14. Induction of rheumatoid arthritis in C57BL/6 mice: To induce rheumatoid arthritis, anti-collagen-II mAbs (CII-Ab, Arthrogen-CIA Arthritogenic Monoclonal Antibody, #53010: Chondrex, Inc., WA, USA) were intraperitoneally (i.p.) injected into 7-week-old male mice on the first day, and 50 μg of LPS was injected on the third day. To evaluate the severity of arthritis, a scoring system was applied according to the criteria.
0. No erythema and swelling are observed.
1. Slight erythema is observed in tarsals and ankle joints.
2. Slight erythema and swelling are observed from an ankle joint to the midfoot.
3. Erythema and swelling extending from ankle joints to the metatarsals are observed.
4. Erythema and severe swelling were observed throughout the ankles, feet, and fingers.
The sum of final scores was recorded daily until the sum reached 16. On the 18th day, each of the mice was anesthetized, and then located on a radiographic view box. Thereafter, a location of each of the mice was adjusted so that the mouse was disposed at a distance of 90 cm from an X-ray source. The radioanalysis on hind legs with arthritis was performed by irradiating the hind legs at […] for 0.01 seconds using an X-ray machine (BLD-150RK, Hradec Kralove, Czech Republic).
15. Immunohistochemical assay: An immunohistochemical assay was carried out using an avidin-biotin-peroxidase method known in the art. Each of joint tissue samples collected from the mice was fixed with formalin, and embedded in paraffin. These samples were continuously microtomed into sections with a thickness of 4 μm. Each of the sections was stained with haematoxylin/eosin (H&E), anti-COX-2 and anti-iNOS antibodies (Caymen Chemical, Ann Arbor, Mich.).
Referring to FIG. 10(A), MMPP (5 mg/kg, p.o.) (dissolved in 100 μL of PBS including 0.5 μL of DMSO), a vehicle (a negative control), or indomethacin (5 mg/kg, p.o./dissolved in […] of PBS after the dissolution) was administered daily to 7-week-old male C57BL/6 mice for 18 days.

iNOS and COX-2 = assay: Western blotting of iNOS and COX-2 expression in LPS-induced RAW 264.7 cells; format: cell-based, mouse; parameters: dose or concentration left out as unconfirmed; details: LPS and MMPP
NF-κB and STAT3 = assay: EMSA and Western blotting of CAIA-induced ankle joint tissues; format: in vivo, mouse
Experimental: In addition, the DNA binding activities of NF-κB and STAT3 were determined by EMSA. The same amount of the total proteins (20 μg/Lane) was subjected to 10% SDS-PAGE, and STAT3, P-STAT3, p50, p65, IKK, 1 KB, and p-1lκB were detected through Western blotting. A β-actin protein or histone H was used as the control. As a result, it can be seen that MMPP inhibited the STAT3 DNA-binding activity (FIG. 12(A)), the NF-κB STAT3 DNA-binding activity (FIG. 12(B)), nuclear translocation of pSTAT3, p50 and p65, and phosphorylation of IkB, IKKb and IKKa in the CAIA-induced ankle joint tissues (FIGS. 12(C) and 12(D))

iNOS = assay: iNOS-luciferase activity assay in LPS-induced RAW 264.7 cells; format: cell-based, mouse; details: LPS (1 µg/mL) and MMPP (0 to 4 µg/mL)
Experimental: 9. Cell infection: RAW 264.7 cells (5×10^4 cells/well) were added to a 24-well plate, and transiently infected with a STAT3-luciferase reporter plasmid and an iNOS-luciferase reporter plasmid using a Lipofectamine PLUS and plasmid mixture in OPTI-MEN.
as §1

RAW 264.7 cells [3] = assay: ROS, PGE2 and pro-inflammatory cytokine assays in LPS-induced RAW 264.7 cells; format: cell-based, mouse; details: concentration-dependent manner (0 to 4 mg/mL)
Experimental: 7. PEG2 and cytokine Assays: A PGE2 assay was carried out in the cultured RAW 264.7 cells using an ELISA kit (commercially available from R&D Systems).
8. ROS Assay: An ROS assay was carried out using an ELISA kit (commercially available from Cell Biolabs Inc.).
RAW 264.7 cells were transiently infected with a STAT3-luciferase construct, treated with LPS (1 μg/mL) alone or a combination of MMPP and LPS, and then activated for 12 hours. Thereafter, the luciferase activity, the ROS and PGE2 expression, and a level of pro-inflammatory cytokines were determined.

[4] = 5 mg/kg, p.o. daily, last (18th) day

In the case of COc1ccc(C/C=C/c2ccc(O)c(OC)c2)cc1 [MMPP, 2-methoxy-4-(3-(4-methoxyphenyl)prop-1-en-1-yl)phenol], the NO generation (RAW 264.7 cells [1]) was “reduced in a concentration-dependent manner”, the “degrees of bone destruction and fibrosis in ankle joints (histopathologic evaluation)” value ([2]; 5 mg/kg) was “remarkably reduced” and the “tissue edema and bone destruction of hind legs (radiographic inspection)” value ([2]; 5 mg/kg) was “significantly reduced”. The clinical score [2, 4] was “approximately 4.67”, the “clinical score lower than that of the CAIA group” value [2, 4] was 66.5% and the “anti-arthritic effect in CAIA model” value ([2]; mouse, in vivo) was “had an anti-arthritic effect”. For the same compound, the “iNOS and COX-2 expression” value (iNOS and COX-2) was “reduced in a concentration-dependent manner”, the “NF-κB STAT3 DNA-binding activity” value (NF-κB and STAT3) was “inhibited” and the “STAT3 DNA-binding activity” value (NF-κB and STAT3) was “inhibited”. For the same compound, the “nuclear translocation of pSTAT3, p50 and p65” value (NF-κB and STAT3) was “inhibited”, the “phosphorylation of IkB, IKKb and IKKa” value (NF-κB and STAT3) was “inhibited” and the iNOS luciferase activity (iNOS) was “reduced in a concentration-dependent manner”. For the same compound, the PGE2 expression (RAW 264.7 cells [3]) was “inhibited”, the ROS expression (RAW 264.7 cells [3]) was “inhibited” and the “level of pro-inflammatory cytokines (TNF-α, IL-6 and IL-1)” value (RAW 264.7 cells [3]) was “inhibited”.
